# Measurements published in patent US9573930B2 (Quanticel Pharmaceuticals, Inc., priority 2014, dated 2017).
# Biological target: full-length human LSD1 (Homo sapiens (Human), UniProt O60341)
# Assay: In vitro enzyme inhibition assay LSD-1 (TR-FRET)
# Format: biochemical
# Conditions: H3K4me1-biotin peptide
# Procedure: This assay determines the ability of a test compound to inhibit LSD1 demethylase activity.
# The enzymatic assay of LSD1 activity is based on Time Resolved-Fluorescence Resonance Energy Transfer (TR-FRET) detection.
# The ability of the compounds disclosed herein to inhibit LSD1 activity was quantified and the respective IC50 value was determined.
row,IC50,Compound
1,< 100 nM,"COCc1ccc(-c2c(-c3ccc(C#N)c(F)c3)nc(N3CCC(N)CC3)n(C)c2=O)cc1 [Example 107, 4-[2-(4-aminopiperidin-1-yl)-5-[4-(methoxymethyl)phenyl]-1-methyl-6-oxopyrimidin-4-yl]-2-fluorobenzonitrile]"
2,< 100 nM,C#Cc1c(-c2ccc(C#N)c(F)c2)nc(N2CCC(N)CC2)n(C)c1=O [Example 110]
3,> 10000 nM,"Cn1c(N2CCC(N)CC2)nc(-c2ccccc2)c(-c2ccc3c(ccn3C)c2)c1=O [Example 114, 2-(4-amino-piperidin-1-yl)-3-methyl-5-(1-methyl-1H-indol-5-yl)-6-phenyl-3H-pyrimidin-4-one]"
4,> 10000 nM,"COc1ccc(-c2c(-c3ccccc3C#N)nc(N3CCC(N)CC3)n(C)c2=O)cc1F [Example 119, 2-[2-(4-aminopiperidin-1-yl)-5-(3-fluoro-4-methoxyphenyl)-1-methyl-6-oxopyrimidin-4-yl]benzonitrile]"
5,100 to 1000 nM,"Cn1c(N2CCC(N)CC2)nc(-c2ccc(C#N)c(F)c2)c(C#N)c1=O [Example 121, 2-(4-amino-piperidin-1-yl)-4-(4-cyano-3-fluoro-phenyl)-1-methyl-6-oxo-1,6-dihydro-pyrimidine-5-carbonitrile]"
6,< 100 nM,"COc1ccc(-c2c(-c3ccc(C#N)c(F)c3)nc(N3CCC(N)CC3)[nH]c2=O)cc1 [Example 122, 4-[2-(4-amino-piperidin-1-yl)-5-(4-methoxy-phenyl)-6-oxo-1,6-dihydro-pyrimidin-4-yl]-2-fluoro-benzonitrile]"

# Second part, the compound before the results:
row,Compound,IC50
1,"Cn1c(N2CCC(N)CC2)nc(-c2ccc(C#N)c(F)c2)c(-c2ccc(S(C)(=O)=O)cc2)c1=O [Example 105, 4-[2-(4-aminopiperidin-1-yl)-1-methyl-5-(4-methylsulfonylphenyl)-6-oxopyrimidin-4-yl]-2-fluorobenzonitrile]",< 100 nM
2,"Cn1c(N2CCC(N)CC2)nc(-c2ccc(C#N)c(F)c2)c(-c2ccc(Cl)cc2)c1=O [Example 106, 4-[2-(4-aminopiperidin-1-yl)-5-(4-chlorophenyl)-1-methyl-6-oxopyrimidin-4-yl]-2-fluorobenzonitrile]",< 100 nM
3,"Cn1c(N2CCC(N)CC2)nc(-c2ccc(C#N)c(F)c2)cc1=O [Example 108, 4-[2-(4-aminopiperidin-1-yl)-1-methyl-6-oxopyrimidin-4-yl]-2-fluorobenzonitrile]",< 100 nM
4,"N#Cc1ccc(-c2cc(=O)n(CC3CC3)c(N3CCC(N)CC3)n2)cc1F [Example 109, 4-[2-(4-amino-piperidin-1-yl)-1-cyclopropylmethyl-6-oxo-1,6-dihydro-pyrimidin-4-yl]-2-fluoro-benzonitrile]",100 to 1000 nM
5,"COc1ccc(-c2c(-c3ccc(Cl)c(F)c3)nc(N3CCC(N)CC3)n(C)c2=O)cc1 [Example 111, 2-(4-amino-piperidin-1-yl)-6-(4-chloro-3-fluoro-phenyl)-5-(4-methoxy-phenyl)-3-methyl-3H-pyrimidin-4-one]",100 to 1000 nM
6,"Cn1c(N2CCC(N)CC2)nc(-c2ccc(F)cc2)c(-c2ccc3c(ccn3C)c2)c1=O [Example 113, 2-(4-amino-piperidin-1-yl)-6-(4-fluoro-phenyl)-3-methyl-5-(1-methyl-1H-indol-5-yl)-3H-pyrimidin-4-one]",100 to 1000 nM
7,"Cn1c(N2CCC(N)CC2)nc(-c2ccncc2)c(-c2ccc3c(ccn3C)c2)c1=O [Example 116, 2-(4-amino-piperidin-1-yl)-3-methyl-5-(1-methyl-1H-indol-5-yl)-6-pyridin-4-yl-3H-pyrimidin-4-one]",100 to 1000 nM
8,"COc1ccc(-c2c(-c3cccc(C#N)c3)nc(N3CCC(N)CC3)n(C)c2=O)cc1F [Example 118, 3-[2-(4-aminopiperidin-1-yl)-5-(3-fluoro-4-methoxyphenyl)-1-methyl-6-oxopyrimidin-4-yl]benzonitrile]",> 10000 nM
